One experiment concerns the target T1, Sas2/4/5 complex (Saccharomyces cerevisiae, UniProt P40963).
T1 construct: made in house; host or cells: E. coli BL21-CodonPlus(DE3)-RIL
Nature of the experiment: SAS complex direct radioactive HAT assay. The experiment is classed as biochemical. The conditions noted are these: 10 μM compound; read-out: Percent inhibition of acetyltransferase, Sas. How it is done:
(§1) PCAF reactions were performed in 100 mM HEPES, pH 7.9, and contained 200 μM TPP, 5 mM MgCl2, 1 mM DTT, 50 mM NaCl, 0.05 mg/mL BSA, 200 μM NAD, 2.4 mM α-KG, 30 μM acetyl-CoA, 0.037 units α-KGDH, 3.3% DMSO, and 10 μM inhibitor. Reactions took place at 30° C. Reactions were initiated by addition of 10 nM PCAF and were followed at 340 nm over the linear portion of the curve below 10% turnover. AANAT reactions were performed in 100 mM NH4 OAc, pH 6.8, and contained 200 μM TPP, 5 mM MgCl2, 1 mM DTT, 50 mM NaCl, 0.05 mg/mL BSA, 200 μM NAD, 2.4 mM α-KG, 200 μM AcCoA, 0.1 units α-KGDH, 3.3% DMSO, and 10 μM inhibitor. Reactions took place at 25° C. Reactions were initiated with addition of 65 nM AANAT, and followed at 340 nm, as above. Percent inhibition values were compared to those with p300, which were repeated using the protocol given above. […]
(§2) HAT assays with yeast GCN5, SAS complex, MOZ, and Rtt109/Vps75 complex used the direct radioactive assay described above. […] The amount of enzyme used in each assay was estimated by comparing Coomassie Blue staining of samples with bovine serum albumin standards, analyzed by SDS-PAGE. […] The rate of ^14C-incorporation into histone H3 was quantified by autoradiography. […]

The next experiment deals with T2, Rtt109/Vps75 complex (Saccharomyces cerevisiae, UniProt Q07794).
T2 construct: made in house
T2 sequence (Q07794 whole entry): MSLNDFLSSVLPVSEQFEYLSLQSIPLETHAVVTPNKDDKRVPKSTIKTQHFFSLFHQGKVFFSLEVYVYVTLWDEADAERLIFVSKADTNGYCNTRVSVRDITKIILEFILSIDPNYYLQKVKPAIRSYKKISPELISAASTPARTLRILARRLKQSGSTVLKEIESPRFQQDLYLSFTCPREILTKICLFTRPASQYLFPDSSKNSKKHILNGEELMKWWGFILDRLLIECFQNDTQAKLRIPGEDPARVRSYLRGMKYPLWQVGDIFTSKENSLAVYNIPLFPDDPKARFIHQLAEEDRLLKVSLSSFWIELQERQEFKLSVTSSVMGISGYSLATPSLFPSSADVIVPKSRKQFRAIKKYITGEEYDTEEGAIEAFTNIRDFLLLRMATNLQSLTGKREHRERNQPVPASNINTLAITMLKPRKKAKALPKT
T2 sequence (P53853 whole entry partner): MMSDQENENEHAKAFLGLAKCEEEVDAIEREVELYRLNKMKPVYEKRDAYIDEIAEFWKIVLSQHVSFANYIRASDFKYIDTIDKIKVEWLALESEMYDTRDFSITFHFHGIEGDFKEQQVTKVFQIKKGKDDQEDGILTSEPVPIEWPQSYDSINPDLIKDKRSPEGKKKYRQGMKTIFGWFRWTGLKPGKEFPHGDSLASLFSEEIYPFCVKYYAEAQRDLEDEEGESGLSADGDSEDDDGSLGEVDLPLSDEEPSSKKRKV
Kind of experiment: Rtt109 direct radioactive HAT assay. The experiment is classed as biochemical. The conditions noted are these: 10 μM compound; read-out: Percent inhibition of acetyltransferase, Rtt109. How it is done:
as §1, §2

For another experiment, the system named is WM983A melanoma cells. Kind of experiment: 3H-thymidine incorporation, WM983A. The settings on record: Homo sapiens, read-out: IC50 (proliferation, 3H-thymidine incorporation). A general note: Dividing cells build labelled thymidine or BrdU into new DNA.
Experiment [1] has as its system melanoma cell lines from varying stages of progression. Nature of the experiment: 3H-thymidine incorporation, melanoma lines of varying stages. The settings on record: 24 hours. In kind it is cell-based. As to the method: Proliferation was measured via ^3H-thymidine incorporation.
The subject of experiment [2] is NCI-60 panel of tumor cell lines. Kind of experiment: NCI-60 DTP human tumor cell line screen. The experiment is classed as cell-based. The settings on record: 48 hours. How it is done:
The in vitro cancer screen was performed at the National Cancer Institute as described in detail at http://dtp.nci.nih.gov/branches/btb/ivelsp.html.
Briefly, cells were plated in 96 well plates at a concentration of 5,000-40,000 cells/well. […] Using the absorbance measurements [time zero, (Tz), control growth, (C), and test growth in the presence of drug at the five concentration levels (Ti)], the percentage growth was calculated at each of the drug concentrations levels. Percentage growth inhibition was calculated as: [(Ti−Tz)/(C−Tz)]×100 for concentrations for which Ti≧Tz [(Ti−Tz)/Tz]×100 for concentrations for which Ti<Tz where Tz is time zero, C is control growth, and Ti is test growth in the presence of drug at the five concentration levels.

A further experiment has as its system H247 glioblastoma cells. Nature of the experiment: AlamarBlue growth inhibition, H247. In kind it is cell-based. The settings on record: H247, 72 hours. As to the method:
Dose response curves were generated using the AlamarBlue® assay (Invitrogen, Carlsbad, Calif.).
When inhibition was assessed using the AlamarBlue® assay (Invitrogen, Carlsbad, Calif.), cells were initially seeded at 500 cells per well in a 96-well plate. AlamarBlue® is a non-toxic reagent that measures cellular metabolic activity. Its main ingredient is resazurin, a non-fluorescent indicator dye that is reduced to bright red-fluorescent resorufin in metabolically active cells. AlamarBlue® was added to growth medium at 1/10 of the total volume (e.g., 20 μl in 200 μl total volume). […] Fluorescence reading was taken from the same plate every day for 5 days to ensure that the saturation point was not reached. Fluorescence intensity is proportional to the number of live cells in the plate.
(In general: The colour change of resazurin is a common sign of viable cells or microbes.)

Another experiment relates to Mel-1 melanoma cells. Kind of experiment: combination with chemotherapy, total cell number. The settings on record: 2 μM C646, 24 hours before chemotherapy agent. In kind it is cell-based. As to the method: The cells were grown for 24 hours in medium. The cells were given fresh medium and either 1 μM of cisplatin or 200 μM of temozolamide was added. Total cell number was counted on Day 0, at 24 hours, and 48 hours after addition of cisplatin or temozolamide.
After 24 hours, the treated and mock-treated cells were given fresh medium, and the cells were treated with cisplatin or temozolamide for 48 hours.

A further experiment concerns WM35 melanoma cells. Kind of experiment: apoptosis, annexin V and propidium iodide FACS. The experiment is classed as cell-based, human. The settings on record: 72 hours, low serum concentrations. As to the method: FIG. 14A includes scatter plots. […] WM35 melanoma cells were also treated with camptothecin as a positive control for apoptosis. FIGS. 14B and 14C include images of the treated cells stained for senescence-associated beta galactosidase.

Results on 1 compound are retold here after US9005670B2, “Use of histone acetyltransferase inhibitors as novel anti-cancer therapies” (The Johns Hopkins University, priority 2010, dated 2015).

Each structure is given as a SMILES string.

As usually defined, the inhibition is the percentage by which the read-out fell short of the control.

T1 sequence (P40963 whole entry): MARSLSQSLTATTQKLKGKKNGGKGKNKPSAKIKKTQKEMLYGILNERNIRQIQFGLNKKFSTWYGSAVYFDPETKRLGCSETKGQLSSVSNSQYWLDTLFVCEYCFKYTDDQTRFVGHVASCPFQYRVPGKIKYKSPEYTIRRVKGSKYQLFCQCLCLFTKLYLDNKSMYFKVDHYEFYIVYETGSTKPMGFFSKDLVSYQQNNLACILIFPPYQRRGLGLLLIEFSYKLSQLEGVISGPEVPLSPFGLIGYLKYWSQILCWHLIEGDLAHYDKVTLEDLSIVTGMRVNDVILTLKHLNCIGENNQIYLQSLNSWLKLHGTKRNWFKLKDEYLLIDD
T1 sequence (Q04003 whole entry partner): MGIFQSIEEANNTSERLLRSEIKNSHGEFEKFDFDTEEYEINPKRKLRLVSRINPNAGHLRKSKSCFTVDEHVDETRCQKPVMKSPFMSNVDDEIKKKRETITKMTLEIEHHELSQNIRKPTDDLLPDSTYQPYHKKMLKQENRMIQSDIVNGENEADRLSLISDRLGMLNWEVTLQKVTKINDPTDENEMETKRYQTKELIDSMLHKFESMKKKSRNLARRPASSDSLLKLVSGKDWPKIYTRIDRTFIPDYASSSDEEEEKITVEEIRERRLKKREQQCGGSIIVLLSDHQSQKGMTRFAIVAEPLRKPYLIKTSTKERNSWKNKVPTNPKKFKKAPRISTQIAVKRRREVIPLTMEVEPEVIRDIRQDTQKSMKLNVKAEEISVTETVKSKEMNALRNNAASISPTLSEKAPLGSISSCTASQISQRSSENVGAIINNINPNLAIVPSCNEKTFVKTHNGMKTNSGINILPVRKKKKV
T1 sequence (Q99314 whole entry partner): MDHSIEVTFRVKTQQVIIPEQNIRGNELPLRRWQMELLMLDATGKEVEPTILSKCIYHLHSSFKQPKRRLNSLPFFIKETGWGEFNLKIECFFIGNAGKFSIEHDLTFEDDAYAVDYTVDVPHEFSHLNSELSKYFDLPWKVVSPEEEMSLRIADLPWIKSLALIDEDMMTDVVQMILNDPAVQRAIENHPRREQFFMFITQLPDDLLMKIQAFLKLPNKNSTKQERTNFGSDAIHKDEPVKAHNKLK

Turning to `CC1=NN(c2ccc(C(=O)O)cc2)C(=O)C1=Cc1ccc(-c2cc(C)c(C)cc2[N+](=O)[O-])o1` [Compound C646, 4-(4,5-dihydro-3-methyl-4-((5-(4,5-dimethyl-2-nitrophenyl)furan-2-yl)methylene)-5-oxopyrazol-1-yl)benzoic acid], the inhibition at 10 µM at Sas2/4/5 complex and on Rtt109/Vps75 complex was below 10% throughout. The results for the IC50 in the experiment on WM983A melanoma cells and in the experiment with H247 glioblastoma cells were 10 to 20 µM and 14.4 µM, respectively. Also, the 3H-thymidine incorporation entry in experiment [1] is reported as “reduced ^3H-thymidine incorporation”. The “growth inhibition / cell death” value in experiment [2] was “significant growth inhibition and/or tumor cell death”. Also, in the experiment with Mel-1 melanoma cells, the sensitization to chemotherapy result was “sensitized the melanoma cells to temozolamide”. Moreover, the apoptosis entry in the experiment on WM35 melanoma cells is reported as “induced WM35 cell apoptosis”.
